Holding throughout (assay type): physicochemical
The nature of data set [1]: Equilibrium solubility of formula (I) Form 2 in water. The settings on record: for Final Form: solids checked by XRPD after 6 hrs; for solubility at 6 h: thermodynamic from solid, equilibrated 6 hrs, supernatant by HPLC. The protocol:
Equilibrium solubility of formula (I) Form 2 was measured in the water at 20° C. and 30° C. All samples were equilibrated at temperature for 6 hrs, and the solubility of supernatant was measured by HPLC, while the solids were checked by XRPD. (See Table 9.)

Data set [2] in a line: Solid stability of crystalline Form 2 on storage. The settings on record: 7-8 days. On the procedure: Samples of formula (I) crystalline Form 2 were stored as solids at 25° C./60% Relative Humidity (RH), 30° C./˜56%, and 40° C./75% RH for 7-8 days. The samples were prepared in duplicate with an offset of 2 weeks. Each replicate was stored in a different container.
Data set [3] can be described thus: Storage of Form 1 at ambient conditions. On the procedure: Formula (I) Form 1 exists at ambient conditions upon short term storage (i.e., less than 8 d). A mixture of formula (I) Forms 1 and 2 (16 mg) was weighed into a glass vial, and tetrahydrofuran (THF, 0.5 mL) was added. The resulting slurry was stirred at room temperature for about 4 d. The wet solids were analyzed by XRPD in transmission mode and confirmed to be crystalline formula (I) Form 1, as shown by XRPD analysis (FIG. 1).

The results in this text go back to US11136300B2, “Crystalline forms of 3-substituted 1,2,4-oxadiazole” (Aurigene Discovery Technologies Limited, priority 2017, dated 2021).

Each structure is given as a SMILES string. ≈ marks a conversion by molar mass, not a printed value.

As for `CC(O)[C@H](NC(=O)N[C@@H](CC(N)=O)c1nc([C@@H](N)CO)no1)C(=O)O` (stereo partly drawn) [Form 2], in data set [1] (20° C. and 30° C., XRPD (FIG. 6)), the “form change during the solubility testing” value is on record as “No form change was observed”. For the same molecule, the “Final Form” value in data set [1] (20° C.) and in data set [1] (30° C.) was “Form 2” throughout. For the same molecule, the solubility (usually the concentration that dissolves in the medium under given conditions) at 6 h in data set [1] (20° C.) stood at 148 mg/mL (≈ 410 mM); in data set [1] (30° C.), 166 mg/mL (≈ 459 mM). Further, the “solid form and particle morphology after storage” value in data set [2] (25° C./60% RH), in data set [2] (30° C./~56% RH) and in data set [2] (40° C./75% RH) was “remained unchanged” each time.

Turning to `CC(O)[C@H](NC(=O)N[C@@H](CC(N)=O)c1nc([C@@H](N)CO)no1)C(=O)O` (stereo partly drawn) [Form 1], the “time for which the form exists on short term storage” value in data set [3] is “less than 8 d”.
